In EP4796557A1, “POLYPEPTIDE, BIOACTIVE CONJUGATE, AND PREPARATION METHOD THEREFOR AND USE THEREOF” (priority 2023, dated 2025):
Numbered stars: 1 amine (or outer) side, 2 acyl side, 3 side chain; on linkers, the order of the positions; unused ones are H or OH. Square brackets hold non-standard residues; d marks the D form. Peptide text beside a SMILES is read from it. Cit = NC(=O)NCCC[C@H](N)C(=O)O; X1 = CN(C)CC(N[*:1])C(=O)[*:2]

Columns and labels:
MMP2 = molecular target: T1, MMP2 (Homo sapiens, UniProt P08253); assay: Enzymolysis assay of polypeptides by MMP2 (RP-HPLC); format: biochemical; details: test polypeptide 100 µmol, activated MMP2, 37°C, 4 h
T1 sequence (P08253 110-660): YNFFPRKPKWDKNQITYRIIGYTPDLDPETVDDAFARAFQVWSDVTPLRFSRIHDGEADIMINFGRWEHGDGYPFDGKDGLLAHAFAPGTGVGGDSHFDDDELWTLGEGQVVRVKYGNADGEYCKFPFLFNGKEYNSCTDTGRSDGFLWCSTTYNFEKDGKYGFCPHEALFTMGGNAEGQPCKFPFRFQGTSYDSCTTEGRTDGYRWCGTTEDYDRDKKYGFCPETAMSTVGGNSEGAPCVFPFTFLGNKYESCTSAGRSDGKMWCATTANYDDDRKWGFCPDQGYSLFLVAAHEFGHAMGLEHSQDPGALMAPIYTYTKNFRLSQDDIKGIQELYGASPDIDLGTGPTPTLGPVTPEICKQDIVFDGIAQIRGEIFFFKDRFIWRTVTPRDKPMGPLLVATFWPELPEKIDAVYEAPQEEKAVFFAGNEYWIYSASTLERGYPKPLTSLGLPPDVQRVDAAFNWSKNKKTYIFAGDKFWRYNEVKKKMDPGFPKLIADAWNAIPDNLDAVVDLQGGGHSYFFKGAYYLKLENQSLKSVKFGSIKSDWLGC
Experimental: (§1) First, MMP2 or MMP9 enzyme solution having a final concentration of 200 µg/mL was mixed with 4 mM APMA at a ratio of 1:1, placed in a 37°C water bath and incubated for 24 h to activate the MMP2 or MMP9 enzyme solution. Subsequently, the test polypeptide having a final concentration of 100 µmol was incubated with the activated MMP2 or MMP9 enzyme solution in a 37°C water bath for 4 h. After the reaction was complete, an equal volume of acetonitrile solution was added thereto, followed by RP-HPLC analysis.
(§2) The enzymolysis efficiency of the polypeptide was calculated based on the peak areas of the target peak before and after enzymolysis. The formula is as follows: Enzymolysis efficiency = […] [formula]

MMP9 = MMP9 (Homo sapiens, UniProt P14780); assay: Enzymolysis assay of polypeptides by MMP9 (RP-HPLC); format: biochemical; details: polypeptide 100 µmol with activated MMP9, 37°C, 4 h, RP-HPLC peak areas
Chain of MMP9 (P14780 107-707 limits assumed, species assumed): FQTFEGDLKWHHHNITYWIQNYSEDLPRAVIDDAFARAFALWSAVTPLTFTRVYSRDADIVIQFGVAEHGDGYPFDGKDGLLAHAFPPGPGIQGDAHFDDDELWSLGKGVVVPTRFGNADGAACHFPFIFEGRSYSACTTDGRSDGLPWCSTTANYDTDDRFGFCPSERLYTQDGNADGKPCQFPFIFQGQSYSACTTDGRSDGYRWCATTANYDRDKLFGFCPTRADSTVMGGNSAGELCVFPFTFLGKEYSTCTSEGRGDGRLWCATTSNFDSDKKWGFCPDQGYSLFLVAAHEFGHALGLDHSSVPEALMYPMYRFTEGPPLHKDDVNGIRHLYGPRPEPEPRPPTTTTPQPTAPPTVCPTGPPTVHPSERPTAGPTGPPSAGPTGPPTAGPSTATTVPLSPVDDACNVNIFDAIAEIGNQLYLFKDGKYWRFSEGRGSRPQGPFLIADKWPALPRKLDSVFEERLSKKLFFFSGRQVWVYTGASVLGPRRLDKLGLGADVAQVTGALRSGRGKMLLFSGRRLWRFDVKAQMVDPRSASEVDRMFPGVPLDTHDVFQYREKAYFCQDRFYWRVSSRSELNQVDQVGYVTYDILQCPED
Experimental: as §1, §2

Compound | Enzymolysis efficiency (%) (MMP2) | Enzymolysis efficiency (%) (MMP9)
CC(=O)N[C@@H](CO)C(=O)N1CCC[C@H]1C(=O)N[C@@H](CCCNC(=N)N)C(=O)NCC(=O)N[C@@H](CC(C)C)C(=O)N[C@H](C(=O)N[C@@H](CCCNC(N)=O)C(N)=O)C(C)C [Compound 2-P18] (Ac-SPRGLV[Cit]-NH2) | 86.03% | 93.84%
Ac-GPSALGGFG-NH2 [Compound 1-P25] | 83.12% | 38.53%
CC(=O)NCC(=O)N1CCC[C@H]1C(=O)N[C@@H](C)C(=O)NCC(=O)N[C@@H](CC(C)C)C(=O)N[C@H](C(=O)N[C@@H](CCCNC(N)=O)C(N)=O)C(C)C [Compound 1-P7] (Ac-GPAGLV[Cit]-NH2) | 90.29% | 25.55%
CC(=O)NCC(=O)N1CCC[C@H]1C(=O)N[C@@H](CC(C)C)C(=O)N[C@@H](CO)C(=O)N[C@@H](CC(C)C)C(=O)N[C@H](C(=O)N[C@@H](CCCNC(N)=O)C(N)=O)C(C)C [Compound 1-P5] (Ac-GPLSLV[Cit]-NH2) | 52.03% | 54.80%
Ac-VPLSLGGFG-NH2 [Compound 1-P15] | 40.90% | 33.25%
CC(=O)NCC(=O)N1CCC[C@H]1C(=O)N[C@@H](CCCNC(=N)N)C(=O)NCC(=O)NC(CN(C)C)C(=O)N[C@H](C(=O)N[C@@H](CCCNC(N)=O)C(N)=O)C(C)C (stereo partly drawn) [Compound 2-P27] (Ac-GPRG[X1]V[Cit]-NH2) | 9.00% | 10.53%
CC(=O)N[C@@H](Cc1c[nH]cn1)C(=O)N1CCC[C@H]1C(=O)N[C@@H](CCCNC(=N)N)C(=O)N[C@@H](CC(N)=O)C(=O)N[C@@H](CC(C)C)C(=O)N[C@H](C(=O)N[C@@H](CCCNC(N)=O)C(N)=O)C(C)C [Compound 2-P15] (Ac-HPRNLV[Cit]-NH2) | 63.27% | 94.69%
CC(=O)NCC(=O)N1CCC[C@H]1C(=O)N[C@@H](C)C(=O)N1CCC[C@H]1C(=O)N[C@@H](CC(C)C)C(=O)N[C@H](C(=O)N[C@@H](CCCNC(N)=O)C(N)=O)C(C)C [Compound 2-P25] (Ac-GPAPLV[Cit]-NH2) | 85.08% | 45.37%
CC(=O)NCC(=O)N1CCC[C@H]1C(=O)N[C@@H](CCCNC(N)=O)C(=O)N1CCC[C@H]1C(=O)N[C@@H](CC(C)C)C(=O)N[C@H](C(=O)N[C@@H](CCCNC(N)=O)C(N)=O)C(C)C [Compound 2-P11] (Ac-GP[Cit]PLV[Cit]-NH2) | 40.95% | 45.82%
CC[C@H](C)[C@H](NC(C)=O)C(=O)N1CCC[C@H]1C(=O)N[C@H](C(=O)N[C@@H](CO)C(=O)N[C@@H](CC(C)C)C(=O)N[C@H](C(=O)N[C@@H](CCCNC(N)=O)C(N)=O)C(C)C)C(C)C [Compound 1-P4] (Ac-IPVSLV[Cit]-NH2) | 21.87% | 18.84%
CC(=O)NCC(=O)N1CCC[C@H]1C(=O)N[C@@H](CO)C(=O)N[C@@H](C)C(=O)N[C@@H](CC(C)C)C(=O)N[C@H](C(=O)N[C@@H](CCCNC(N)=O)C(N)=O)C(C)C [Compound 1-P13] (Ac-GPSALV[Cit]-NH2) | 90.13% | 45.08%
CC(=O)NCC(=O)N1CCC[C@H]1C(=O)N[C@@H](C)C(=O)N[C@@H](CC(N)=O)C(=O)N[C@@H](CC(C)C)C(=O)N[C@H](C(=O)N[C@@H](CCCNC(N)=O)C(N)=O)C(C)C [Compound 2-P26] (Ac-GPANLV[Cit]-NH2) | 100.00% | 84.35%
CC(=O)NCC(=O)N1CCC[C@H]1C(=O)N[C@@H](CCCNC(N)=O)C(=O)NCC(=O)N[C@@H](CC(C)C)C(=O)N[C@H](C(=O)N[C@@H](CCCNC(N)=O)C(N)=O)C(C)C [Compound 2-P10] (Ac-GP[Cit]GLV[Cit]-NH2) | 71.24% | 80.34%
Ac-GPLGLGGFG-NH2 [Compound 1-P21] | 90.43% | 75.60%
CC(=O)NCC(=O)N1CCC[C@H]1C(=O)N[C@@H](CCC(N)=O)C(=O)NCC(=O)N[C@@H](CC(C)C)C(=O)N[C@H](C(=O)N[C@@H](CCCNC(N)=O)C(N)=O)C(C)C [Compound 1-P8] (Ac-GPQGLV[Cit]-NH2) | 54.71% | 29.30%
CC(=O)N[C@@H](Cc1c[nH]cn1)C(=O)N1CCC[C@H]1C(=O)N[C@@H](CCCNC(=N)N)C(=O)N1CCC[C@H]1C(=O)N[C@@H](CC(C)C)C(=O)N[C@H](C(=O)N[C@@H](CCCNC(N)=O)C(N)=O)C(C)C [Compound 2-P14] (Ac-HPRPLV[Cit]-NH2) | 54.65% | 58.33%
CC(=O)N1CCC[C@H]1C(=O)N[C@@H](CCCNC(=N)N)C(=O)N[C@@H](CC(N)=O)C(=O)N[C@@H](CC(C)C)C(=O)N[C@H](C(=O)N[C@@H](CCCNC(N)=O)C(N)=O)C(C)C [Compound 2-P3] (Ac-PRNLV[Cit]-NH2) | 66.36% | 97.39%
CC(=O)N1CCC[C@H]1C(=O)N[C@@H](CCCNC(=N)N)C(=O)NCC(=O)N[C@@H](CC(C)C)C(=O)N[C@H](C(=O)N[C@@H](CCCNC(N)=O)C(N)=O)C(C)C [Compound 2-P1, PRGLVCit] (Ac-PRGLV[Cit]-NH2) | 80.31% | 93.67%
Ac-GPAGLGGFG-NH2 [Compound 1-P19] | 89.82% | 29.28%
CC(=O)N[C@@H](CO)C(=O)N1CCC[C@H]1C(=O)N[C@@H](CCCNC(=N)N)C(=O)N[C@@H](CC(N)=O)C(=O)N[C@@H](CC(C)C)C(=O)N[C@H](C(=O)N[C@@H](CCCNC(N)=O)C(N)=O)C(C)C [Compound 2-P21] (Ac-SPRNLV[Cit]-NH2) | 70.46% | 95.84%
Ac-GPAALGGFG-NH2 [Compound 1-P24] | 96.89% | 37.13%
Ac-IPVSLGGFG-NH2 [Compound 1-P16] | 13.02% | 13.30%
CC(=O)N[C@@H](Cc1c[nH]cn1)C(=O)N1CCC[C@H]1C(=O)N[C@@H](CCCNC(=N)N)C(=O)N[C@@H](CO)C(=O)N[C@@H](CC(C)C)C(=O)N[C@H](C(=O)N[C@@H](CCCNC(N)=O)C(N)=O)C(C)C [Compound 2-P13] (Ac-HPRSLV[Cit]-NH2) | 57.42% | 81.06%
Ac-GPQGLGGFG-NH2 [Compound 1-P20] | 51.36% | 32.62%
